In patent US20260070945A1, “MACROCYCLIC IMMUNOMODULATORS” (Bristol-Myers Squibb Company, priority 2022, published 2026):
*1 amine or outer side, *2 acyl side, *3 side chain or, on linkers, in order; H or OH if unused. Where a SMILES comes first, the peptide text is derived from it. Bridges are numbered along the chain shown (N, C = ends). [ ]: non-standard residue; d: D form. The star is where a group is joined. ξ: configuration not given here. Phe(4-COOH) = N[C@@H](Cc1ccc(C(=O)O)cc1)C(=O)O; Bip = N[C@@H](Cc1ccc(-c2ccccc2)cc1)C(=O)O; NH(CH2)14COOH = O=C(O)CCCCCCCCCCCCCCN*; Phe(3-Me) = Cc1cccc(C[C@H](N)C(=O)O)c1; γGlu = O=C(O)[C@H](CCC(=O)[*:2])N[*:1]; NH(CH2)12COOH = O=C(O)CCCCCCCCCCCCN*; Val(3-OH) = CC(C)(O)[C@H](N)C(=O)O; hArg = N=C(N)NCCCC[C@H](N)C(=O)O; 4Pal = N[C@@H](Cc1ccncc1)C(=O)O; Cha = N[C@@H](CC1CCCCC1)C(=O)O; Ile(3ξ) = CCC(C)[C@H](N)C(=O)O; Thr(3ξ) = CC(O)[C@H](N)C(=O)O; 12Ado = NCCCCCCCCCCCC(=O)O; Carboxymethyl = O=C(O)C*; NMeA = CN[C@@H](C)C(=O)O; Nle = CCCC[C@H](N)C(=O)O; Orn = NCCC[C@H](N)C(=O)O; Dab = NCC[C@H](N)C(=O)O; AEEA = NCCOCCOCC(=O)O

These molecules were tested against T1, PD-1/PD-L1 interaction (PE-labeled human PD-L1-Ig binding to Jurkat cell line over-expressing human PD-1) (Homo sapiens, UniProt Q15116) (assay: Jurkat-PD-1 Cell Binding High-Content Screening Assay (CBA)). Conditions: Jurkat-hPD-1 cells, PE-labeled PD-L1-Ig 20 nM final; read-out: Jurkat HPD1 PDL1 IC50.
T1 construct: expressed in transfected cells; host or cells: Jurkat
T1 sequence (Q15116 25-288): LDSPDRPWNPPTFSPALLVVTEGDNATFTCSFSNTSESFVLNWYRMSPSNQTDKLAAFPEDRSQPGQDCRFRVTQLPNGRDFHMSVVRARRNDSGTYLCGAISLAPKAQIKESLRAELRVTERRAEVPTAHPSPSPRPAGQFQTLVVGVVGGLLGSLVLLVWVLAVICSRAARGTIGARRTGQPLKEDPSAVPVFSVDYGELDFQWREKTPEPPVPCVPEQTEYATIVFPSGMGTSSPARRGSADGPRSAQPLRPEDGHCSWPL
Summary of the method: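 Read-out: high-content imaging of cell-bound PE fluorescence, with Hoechst 33342 nuclear counterstain after paraformaldehyde fixation. Before labeled ligand (20 nM final, 1 h) was added, compound sat on the cells for 2 h at 37 °C in DMEM/10% FCS.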

Structure (SMILES) | IC50 [nM]
Cc1cccc(C[C@@H]2NC(=O)[C@H](CC(=O)O)NC(=O)[C@H](Cc3ccc(C(=O)O)cc3)NC(=O)[C@H](Cc3ccncc3)NC(=O)CSC[C@@H](C(=O)N[C@@H](CCN)C(=O)NCCOCCOCC(=O)NCCCCCCCCCCCCC(=O)O)NC(=O)[C@H](CO)NC(=O)[C@H](C(C)(C)O)NC(=O)[C@H](CC3CCCCC3)NC(=O)[C@H](CCN)NC(=O)[C@@H](CC(C)C)NC(=O)[C@H](C)N(C)C(=O)[C@H](Cc3ccc(OCC(=O)O)cc3)NC(=O)[C@H](Cc3ccc(-c4ccccc4)cc3)NC(=O)[C@H](Cc3ccc(OCC(=O)O)cc3)NC2=O)c1 [Example 1434] ({CH2CO}-[4Pal][Phe(4-COOH)]D[Phe(3-Me)]Y(Carboxymethyl)[Bip]Y(Carboxymethyl)[NMeA][dL][Dab][Cha][Val(3-OH)]SC[Dab][AEEA]-{NH(CH2)12COOH}; thioether N-14) | 915
CC(C)C[C@@H]1NC(=O)[C@H](Cc2c[nH]c3ccccc23)NC(=O)[C@H](CC(=O)O)NC(=O)[C@H](Cc2ccc(C(=O)O)cc2)NC(=O)[C@H](CCCCNC(=N)N)NC(=O)CSC[C@@H](C(=O)N[C@@H](C)C(=O)N[C@@H](CCN)C(=O)NCCCCCCCCCCCCCCC(=O)O)NC(=O)[C@H](CO)NC(=O)[C@H](C(C)C)NC(=O)[C@H](CC2CCCCC2)NC(=O)[C@H](CCN)NC(=O)[C@@H](CC(C)C)NC(=O)[C@H](C)N(C)C(=O)[C@H](C(C)C)NC(=O)[C@H](Cc2ccc(-c3ccccc3)cc2)NC1=O [Example 2001] ({CH2CO}-[hArg][Phe(4-COOH)]DWL[Bip]V[NMeA][dL][Dab][Cha]VSCA[Dab]-{NH(CH2)14COOH}; thioether N-14) | 123
CC(C)C[C@@H]1NC(=O)[C@H](Cc2c[nH]c3ccccc23)NC(=O)[C@H](CC(=O)O)NC(=O)[C@H](Cc2ccc(OCC(=O)O)cc2)NC(=O)[C@H](CCCCNC(=N)N)NC(=O)CSC[C@@H](C(=O)N[C@@H](C)C(=O)N[C@@H](CCN)C(=O)NCCCCCCCCCCCCCCC(=O)O)NC(=O)[C@H](CO)NC(=O)[C@H](C(C)C)NC(=O)[C@H](CC2CCCCC2)NC(=O)[C@H](CCN)NC(=O)[C@@H](CC(C)C)NC(=O)[C@H](C)N(C)C(=O)[C@H](C(C)C)NC(=O)[C@H](Cc2ccc(-c3ccccc3)cc2)NC1=O [Example 2002] ({CH2CO}-[hArg]Y(Carboxymethyl)DWL[Bip]V[NMeA][dL][Dab][Cha]VSCA[Dab]-{NH(CH2)14COOH}; thioether N-14) | 65.4
CC(C)C[C@@H]1NC(=O)[C@H](Cc2c[nH]c3ccccc23)NC(=O)[C@H](CC(=O)O)NC(=O)[C@H](Cc2ccc(OCC(=O)O)cc2)NC(=O)[C@H](CCCCNC(=N)N)NC(=O)CSC[C@@H](C(=O)N[C@@H](C)C(=O)N[C@@H](CCCCN)C(=O)NCCCCCCCCCCCCCCC(=O)O)NC(=O)[C@H](CO)NC(=O)[C@H](C(C)C)NC(=O)[C@H](CC(C)C)NC(=O)[C@H](Cc2c[nH]cn2)NC(=O)[C@@H](CC(C)C)NC(=O)[C@H](C)N(C)C(=O)[C@H](C(C)C)NC(=O)[C@H](Cc2ccc(-c3ccccc3)cc2)NC1=O [Example 2003] ({CH2CO}-[hArg]Y(Carboxymethyl)DWL[Bip]V[NMeA][dL]HLVSCAK-{NH(CH2)14COOH}; thioether N-14) | 290
CC(C)C[C@H]1NC(=O)[C@H](C)N(C)C(=O)[C@H](C(C)C)NC(=O)[C@H](Cc2ccc(-c3ccccc3)cc2)NC(=O)[C@H](C(C)C)NC(=O)[C@H](Cc2c[nH]c3ccccc23)NC(=O)[C@H](CC(=O)O)NC(=O)[C@H](Cc2ccc(C(=O)O)cc2)NC(=O)[C@H](Cc2ccncc2)NC(=O)CSC[C@@H](C(=O)N[C@@H](CCN)C(=O)NCCCCCCCCCCCCCCC(=O)O)NC(=O)[C@H](CO)NC(=O)[C@H](C(C)C)NC(=O)[C@H](CC2CCCCC2)NC(=O)[C@H](CCN)NC1=O [Example 2004] ({CH2CO}-[4Pal][Phe(4-COOH)]DWV[Bip]V[NMeA][dL][Dab][Cha]VSC[Dab]-{NH(CH2)14COOH}; thioether N-14) | 181
CC(C)C[C@@H]1NC(=O)[C@H](Cc2c[nH]c3ccccc23)NC(=O)[C@H](CC(=O)O)NC(=O)[C@H](Cc2ccc(C(=O)O)cc2)NC(=O)[C@H](C(C)O)NC(=O)CSC[C@@H](C(=O)N[C@@H](C)C(=O)N[C@@H](CCN)C(=O)NCCCCCCCCCCCCCCC(=O)O)NC(=O)[C@H](CO)NC(=O)[C@H](C(C)C)NC(=O)[C@H](CC2CCCCC2)NC(=O)[C@H](CCN)NC(=O)[C@@H](CC(C)C)NC(=O)[C@H](C)N(C)C(=O)[C@H](C(C)C)NC(=O)[C@H](Cc2ccc(-c3ccccc3)cc2)NC1=O (stereo partly drawn) [Example 2005] ({CH2CO}-[Thr(3ξ)][Phe(4-COOH)]DWL[Bip]V[NMeA][dL][Dab][Cha]VSCA[Dab]-{NH(CH2)14COOH}; thioether N-14) | 223
CCC(C)[C@@H]1NC(=O)[C@H](Cc2ccc(-c3ccccc3)cc2)NC(=O)[C@H](C(C)C)NC(=O)[C@H](Cc2c[nH]c3ccccc23)NC(=O)[C@H](CC(=O)O)NC(=O)[C@H](Cc2ccc(OCC(=O)O)cc2)NC(=O)[C@H](C(C)O)NC(=O)CSC[C@@H](C(=O)N[C@@H](C)C(=O)NCCOCCOCC(=O)N[C@@H](CCC(=O)NCCOCCOCC(=O)N[C@@H](CCC(=O)NCCOCCOCC(=O)N[C@@H](CCCCN)C(=O)NCCCCCCCCCCCCC(=O)O)C(=O)O)C(=O)O)NC(=O)[C@H](C(C)O)NC(=O)[C@H](C(C)C)NC(=O)[C@H](CC2CCCCC2)NC(=O)[C@H](CCN)NC(=O)[C@@H](CC(C)C)NC(=O)[C@H](C)N(C)C1=O (stereo partly drawn) [Example 2009] ({CH2CO}-[Thr(3ξ)]Y(Carboxymethyl)DWV[Bip][Ile(3ξ)][NMeA][dL][Dab][Cha]V[Thr(3ξ)]CA[AEEA][γGlu][AEEA][γGlu][AEEA]K-{NH(CH2)12COOH}; thioether N-14) | 58.3
CCC(C)[C@@H]1NC(=O)[C@H](Cc2ccc(-c3ccccc3)cc2)NC(=O)[C@H](C(C)C)NC(=O)[C@H](Cc2c[nH]c3ccccc23)NC(=O)[C@H](CC(=O)O)NC(=O)[C@H](Cc2ccc(OCC(=O)O)cc2)NC(=O)[C@H](C(C)O)NC(=O)CSC[C@@H](C(=O)N[C@@H](C)C(=O)NCCOCCOCC(=O)N[C@@H](CCC(=O)NCCOCCOCC(=O)N[C@@H](CCC(=O)NCCOCCOCC(=O)N[C@@H](CCCN)C(=O)NCCCCCCCCCCCC(=O)O)C(=O)O)C(=O)O)NC(=O)[C@H](C(C)O)NC(=O)[C@H](C(C)C)NC(=O)[C@H](CC2CCCCC2)NC(=O)[C@H](CCN)NC(=O)[C@@H](CC(C)C)NC(=O)[C@H](C)N(C)C1=O (stereo partly drawn) [Example 2010] ({CH2CO}-[Thr(3ξ)]Y(Carboxymethyl)DWV[Bip][Ile(3ξ)][NMeA][dL][Dab][Cha]V[Thr(3ξ)]CA[AEEA][γGlu][AEEA][γGlu][AEEA][Orn][12Ado]-OH; thioether N-14) | 34.8
CCCC[C@@H]1NC(=O)CSC[C@@H](C(=O)N[C@@H](CCN)C(=O)NCCOCCOCC(=O)N[C@@H](CCC(=O)NCCOCCOCC(=O)NCCCCCCCCCCCCC(=O)O)C(=O)O)NC(=O)[C@H](CCC(=O)O)NC(=O)[C@H](C(C)C)NC(=O)[C@H](CC2CCCCC2)NC(=O)[C@H](CCN)NC(=O)[C@@H](CC(C)C)NC(=O)[C@H](C)N(C)C(=O)[C@H](Cc2ccc(OCC(=O)O)cc2)NC(=O)[C@H](Cc2ccc(-c3ccccc3)cc2)NC(=O)[C@H](Cc2ccc(OCC(=O)O)cc2)NC(=O)[C@H](Cc2cccc(C)c2)NC(=O)[C@H](CC(=O)O)NC(=O)[C@H](Cc2ccc(OCC(=O)O)cc2)NC1=O [Example 2011] ({CH2CO}-[Nle]Y(Carboxymethyl)D[Phe(3-Me)]Y(Carboxymethyl)[Bip]Y(Carboxymethyl)[NMeA][dL][Dab][Cha]VEC[Dab][AEEA][γGlu][AEEA]-{NH(CH2)12COOH}; thioether N-14) | 88.3
